Laboratory results: US6967075B2 (priority 2000, dated 2005)
Entries after “also recorded” stand apart in the source; their conditions may differ.

Biological target: T1, HCV NS5B (Hepatitis C virus genotype 1b, UniProt P26663)
Test: not given
Assay type: biochemical
Details: not given
Target sequence in this assay (P26663 2420-2989 limits assumed): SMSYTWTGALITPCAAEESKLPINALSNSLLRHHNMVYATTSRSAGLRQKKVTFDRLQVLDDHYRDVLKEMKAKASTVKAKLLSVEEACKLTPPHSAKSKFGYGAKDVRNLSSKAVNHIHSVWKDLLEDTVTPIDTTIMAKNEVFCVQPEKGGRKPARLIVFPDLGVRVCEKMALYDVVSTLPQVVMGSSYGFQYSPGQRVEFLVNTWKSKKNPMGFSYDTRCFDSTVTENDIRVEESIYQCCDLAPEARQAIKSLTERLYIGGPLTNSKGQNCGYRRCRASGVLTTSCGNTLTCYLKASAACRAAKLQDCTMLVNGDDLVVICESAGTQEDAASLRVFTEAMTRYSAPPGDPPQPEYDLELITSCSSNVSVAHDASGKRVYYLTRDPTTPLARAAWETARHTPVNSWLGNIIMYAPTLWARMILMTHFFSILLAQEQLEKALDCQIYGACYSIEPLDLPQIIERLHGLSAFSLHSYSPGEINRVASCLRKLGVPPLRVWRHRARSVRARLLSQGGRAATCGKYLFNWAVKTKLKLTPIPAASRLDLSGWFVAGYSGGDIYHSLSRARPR

Compound	extension/utilization of end-labeled RNA
5′ GCA UGG GCC C 3′ [sym/sub RNA, reference compound]	no primer extension was observed

Biological target: T1, HCV NS5B
Test: Nucleotide incorporation assay using end-labeled primers
Assay type: biochemical
Details: 5 μM template, 10 μM end-labeled primer, 100 μM NTP, 30° C. for 30 min
Method: Nucleotide incorporation assay using end-labeled primers. A standard nucleotide incorporation reaction was performed in a 20 μl volume, containing 50 mM HEPES (pH 7.3), 10 mM β-mecaptoethanol, 50 mM NaCl, 5 mM MgCl2, 5 μM of template RNA, 10 μM of end-labeled primer, 3 to 5 μM of polymerase protein and 100 μM of NTP substrate, as described. Single nucleotide incorporation by HCV replicase was tested using radiolabeled diguanylate (^33pGpG) as a primer and three RNA templates corresponding to SEQ ID NO: 11 [(ACC)7], SEQ ID NO: 9 [(tJCC)7], and SEQ ID NO: 10 [(GCC)7]. Reactions involved ^33pGpG primer alone and with (1) (ACC)7 RNA as the template plus either no NTP, 100 μM UTP or 100 μM ATP, (2) (UCC)7 RNA as the template plus either no NTP, 100 μM ATP or 100 μM CTP, and (3) (GCC)7 RNA as the template plus either no NTP, 100 μM CTP or 100 μM ATP. To show the efficiency of guanylate primers of different length in priming nucleotide incorporation, four template-primer pairs were tested in a standard primer-extension assay: […] (SEQ ID NO: 10)/^33pGG; […] (SEQ ID NO: 12)/^33pGGG; […],(SEQ ID NO-13)/^33pGGGG (SEQ ID NO: 32); and […] (SEQ ID NO: 7)/^33pGpqGG (SEQ ID NO: 33). Reactions were performed using 100 μM of CTP or without a nucleotide substrate.
Reactions contained (UCC)7 alone, (UCC)7 plus 100 μM of ATP, (UCC)6AAA alone, or (UCC)6AAA plus 100 μM of ATP. In addition, RNAs of SEQ ID NOS: 11, 30 and 31 were tested for single-nucleotide incorporation with ^33pGpG as the primer.
To show the minimum length requirement for a template RNA of the invention RNA templates of decreasing length (21 to 4-nt), e.g., SEQ ID NOS: 8 and 14-20 were tested for the ability to direct single-nucleotide incorporation using ^33pGpG as the primer. All reactions contained 100 μM of ATP and one template RNA. Multiple cycles of nucleotide incorporation were performed using a 10-mer RNA and ^33pGpG as the primer. Reactions contained either 100 μM of ATP alone, or 100 μM each of ATP and CTP, or 100 μM each of ATP, CTP and GTP. The reactions were quenched at different times from 15 to 900 seconds.
Various dinucleotide primers for RNA synthesis and nucleotide incorporation using HCV 3′ terminal sequences as template were used. The following RNA templates were used: 5′ AAAAAACAGUCC 3′ (SEQ ID NO: 17), 5′ AAAACAGUGC 3′ (SEQ ID NO: 21), 5′ AAAAAACAGUCG 3′ (SEQ ID NO: 22), 5′ AAAAAACAGUGG 3′ (SEQ ID NO: 23), 5′ AAAAAACAGUAC 3′ (SEQ ID NO: 24), 5′ AAAAAACAGUCA 3′ (SEQ ID NO: 25), which differ by two residues at the 3′ terminal positions. Dinucleotide primers, ^33pGpG, ^33pGpC, ^33pCpG, ^33pCpC, ^33pGpU and ^33pUpG, were paired with respective templates in the absence or presence of 100 μM ATP substrate. RNA templates, 3′(+) and 3′(−), consisted of the 3′ terminal sequences of positive-strand and negative-strand HCV genome, respectively. Primers ^33pApC and ^33pGpC were used for 3′(+) and 3′(−) RNA, respectively, in the absence of nucleotide substrate and in the presence of ATP or CTP.
Reaction mixtures were incubated at 30° C. for 30 min, followed by phenol and chloroform extraction and ethanol precipitation in the presence of glycogen carrier. Product was dissolved in a urea/TBE sample buffer (Novex, San Diego, Calif.) and separated on a 23 to 25% PAGE/6 M Urea/1× TBE gel. The gel was then covered with plastic wrap and exposed to an X-ray film.

Compound	nucleotide incorporation (extension of end-labeled primer)
5′ ACCACCACCACCACCACCACC 3′ (ACCACCACCACCACCACCACC; RNA, backbone not given here) [(ACC)7]	single nucleotide incorporation was observed only when UTP was used
5′ AUC AGG GGG CUG GC 3′ (AUCAGGGGGCUGGC; RNA, backbone not given here) [SEQ ID NO: 27, 3′ terminus of HCV negative-strand RNA genome]	single-nucleotide incorporation was detected; also recorded: higher overall activity
5′ C ACCACCACCACCACCACCAC 3′ (CACCACCACCACCACCACCAC; RNA, backbone not given here) [SEQ ID NO: 31]	significant reduction in activity
5′ CC ACC ACC ACC ACC ACC ACCA 3′ (CCACCACCACCACCACCACCA; RNA, backbone not given here) [SEQ ID NO: 30]	significant reduction in activity
5′ GCCGCCGCCGCCGCCGCCGCC 3′ (GCCGCCGCCGCCGCCGCCGCC; RNA, backbone not given here) [(GCC)7]	only the correct nucleotide, ATP or CTP, resulted in primer extension
5′ UCCUCCUCCUCCUCCUCCUCC 3′ (UCCUCCUCCUCCUCCUCCUCC; RNA, backbone not given here) [(UCC)7]	only the correct nucleotide, ATP or CTP, resulted in primer extension
5′ UCU GCA GAU CAU GU 3′ (UCUGCAGAUCAUGU; RNA, backbone not given here) [SEQ ID NO: 26, 3′ terminus of HCV positive-strand RNA genome]	single-nucleotide incorporation was detected
GGG [^33pGGG]	supported nucleotide incorporation with the highest efficiency
GGGG (5' 33P label, further chemistry not given here) [^33pGGGG]	detrimental to the activity
GGGGG (RNA, backbone not given here; further chemistry not fully specified) [^33pGGGGG]	detrimental to the activity
pGpC [GC]	capable of priming nucleotide (AMP) incorporation
pGpG [GG]	capable of priming nucleotide (AMP) incorporation

Same assay, conditions: 5 μM template, 10 μM end-labeled primer, 100 μM NTP, 30° C. for 30 min; listed as 33pGG

Compound	nucleotide incorporation (extension of end-labeled primer)
pGpG [GG]	supported nucleotide incorporation with the highest efficiency

Biological target: HCV NS5B replicase (Hepatitis C virus genotype 1b, UniProt P26663)
Test: not given
Details: cited from earlier work

HCV NS5B replicase, sequence (P26663 2420-3010 limits assumed): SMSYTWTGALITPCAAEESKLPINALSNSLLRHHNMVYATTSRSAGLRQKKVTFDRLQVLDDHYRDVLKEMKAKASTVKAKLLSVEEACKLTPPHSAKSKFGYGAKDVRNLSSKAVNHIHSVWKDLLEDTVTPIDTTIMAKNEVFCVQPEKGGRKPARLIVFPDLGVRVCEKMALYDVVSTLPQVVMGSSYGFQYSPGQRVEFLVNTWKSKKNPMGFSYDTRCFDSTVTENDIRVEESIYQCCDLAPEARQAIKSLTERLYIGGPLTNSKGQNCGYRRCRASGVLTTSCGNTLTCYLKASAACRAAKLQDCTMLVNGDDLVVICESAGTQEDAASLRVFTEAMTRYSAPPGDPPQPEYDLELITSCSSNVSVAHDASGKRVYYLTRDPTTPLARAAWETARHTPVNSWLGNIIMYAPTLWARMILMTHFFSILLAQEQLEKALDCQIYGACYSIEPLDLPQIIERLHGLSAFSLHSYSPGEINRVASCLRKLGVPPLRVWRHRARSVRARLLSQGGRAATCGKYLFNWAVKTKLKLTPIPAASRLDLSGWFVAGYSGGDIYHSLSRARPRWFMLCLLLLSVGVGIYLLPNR

Compound	inhibition of HCV NS5B replicase
CN1C(=O)[C@]23CC4=CC=C[C@H](O)[C@H]4N2C(=O)[C@@]1(CO)SS3 [Gliotoxin, gliotoxin]	inhibits HCV NS5B replicase in a dose dependent manner

Biological target: poliovirus 3D RdRp (Poliovirus type 1, UniProt P03300)
Test: not given
Details: cited from earlier work

poliovirus 3D RdRp, sequence (P03300 1749-2209 limits assumed): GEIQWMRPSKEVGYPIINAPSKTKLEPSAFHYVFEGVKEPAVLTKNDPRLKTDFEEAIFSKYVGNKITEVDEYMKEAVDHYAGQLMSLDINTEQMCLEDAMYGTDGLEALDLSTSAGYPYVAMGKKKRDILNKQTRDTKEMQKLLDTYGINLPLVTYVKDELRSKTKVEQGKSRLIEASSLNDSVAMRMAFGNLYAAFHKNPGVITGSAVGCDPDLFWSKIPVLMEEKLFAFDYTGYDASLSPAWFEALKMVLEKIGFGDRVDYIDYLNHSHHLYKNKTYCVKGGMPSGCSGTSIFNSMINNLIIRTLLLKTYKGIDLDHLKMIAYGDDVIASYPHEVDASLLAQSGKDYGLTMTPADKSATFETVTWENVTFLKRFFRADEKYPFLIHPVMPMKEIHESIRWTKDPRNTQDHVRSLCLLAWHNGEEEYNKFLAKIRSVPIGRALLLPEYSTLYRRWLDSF

Compound	inhibition of poliovirus 3D RdRp
CN1C(=O)[C@]23CC4=CC=C[C@H](O)[C@H]4N2C(=O)[C@@]1(CO)SS3 [Gliotoxin, gliotoxin]	known poliovirus 3D RdRp inhibitor
